Test results published in paper PMC10786919, “Design-rules for stapled peptides with in vivo activity and their application to Mdm2/X antagonists” (Nature Communications, 2024).
Values after ≈ are worked out from the molar mass of the structure shown. Where two headings read alike, the source gives them in different places. Positions of bridges follow the written chain, without caps; N, C: chain ends. Non-standard residues stand in square brackets, D forms with d. Residues, ends and D or L forms follow the SMILES beside them. Lys(N3) = [N-]=[N+]=NCCCC[C@H](N)C(=O)O; R8 = C=CCCCCCC[C@@](C)(N)C(=O)O; Cba = N[C@@H](CC1CCC1)C(=O)O; S5 = C=CCCC[C@](C)(N)C(=O)O; Ahx = NCCCCCC(=O)O; βAla = NCCC(=O)O

Key:
[1] = Lactate dehydrogenase (LDH) release assay; assay type: cell-based
Method: (§1) HCT116 cells were stably transfected with a p53 responsive β-lactamase reporter and expanded in McCoy’s 5 A Medium with 10% fetal bovine serum (FBS), Blasticidin, and Penicillin/Streptomycin and then transferred to 1.5 ml freezing vials and stored under liquid nitrogen in growth media containing 5% DMSO. […] The cells were then seeded into a 384-well plate at a density of 8000 cells per well. […] The final working concentration of DMSO was 0.5%. Lactate dehydrogenase release was detected using the CytoTox-ONE Homogenous Membrane Integrity Assay Kit (Promega), as per the manufacturer’s instructions. Measurements were carried out using the Tecan plate reader. […] Measurements were taken a minimum of three times (biological replicates) and values are reported as geometric means of the replicates.

HCT116 cells = experiment: Lactate dehydrogenase (LDH) release assay; assay type: cell-based
Method: as §1

[2] = Solubility assay (kinetic solubility, PBS pH 7); assay type: physicochemical; conditions: pH 7, PBS; for solubility kinetic: pH 7, aqueous buffer, kinetic from dmso stock, read-out: Solubility
Method: The standard reference solutions were prepared by diluting the 10 mM stock in 10:80:10 solution of acetonitrile:methanol:DMSO to 100 µM.
The solubility value is calculated by the following equation:
Solubility [µM] = (Peak area of sample/ Peak area of standard) (Standard concentration)

[3] = Experimental LogD (partition coefficient); conditions: for logD: not stated, Partition Coeff LogD
in vitro = experiment: in vitro
From the text: Further, there have been several literature reports[18]–[20] that highlight that the combination of hydrophobic character and positive charge can result in mast cell degranulation (MCD), a potentially fatal condition[18]–[20]. […] The NanoClick assay[22] determines permeability of azide-labeled peptides by combining intracellular copper-free click chemistry with NanoBRET technology. Specifically, if an azido-peptide achieves cytosolic exposure, it will react with a cyclooctyne-decorated Halotag construct that is fused with nanoluciferase. This reaction blocks the click labelling of a subsequently added azido-labeled acceptor dye, thus decreasing the NanoBRET signal in a manner that is target-binding agnostic.
This assay was previously described in detail. The assay was performed in 384-well white assay plates (PerkinElmer CUSG03874) using assay-ready frozen cells that had been transiently transfected with the NanoLuc-HaloTag vector that were thawed at plated in complete media at a density of 6000 cells/ well and incubated at 37 °C 5% CO2 overnight. DIBAC-CA was diluted in assay buffer (OptiMem without phenol red + 1% FBS) and added to cells at a final concentration of 3 μM and incubated at 37 °C 5% CO2 for 1 h. Cells were subsequently centrifuged using a BlueWasher instrument (Blue Cat Bio) to remove the DIBAC-CA solution and washed two times with HBSS (Ca2 + , Mg2 + ). A volume of 30 μL of assay buffer was added back to cell plates. Peptides were serially diluted 4-fold in DMSO with a Hamilton Star apparatus and then delivered into assay plates with an acoustic liquid handler Labcyte ECHO (300 nl, 1% DMSO in-well concentration). After incubating cells with peptide for the desired time (4 or 18 h), the HaloTag ligand, NanoBret618-azide, was added to each well at a final concentration of 10 μM. […] Following addition of NanoBRET Nano-Glo Substrate, donor emission (450 nm) and acceptor emission (610 nm) were measured using an Envision instrument (PerkinElmer).

[4] = 0% FBS 4Hr, read-out: LDH: Cytotoxicity assay: EC50
[5] = 10% FBS 16Hr, read-out: LDH: Cytotoxicity assay: EC50

Row | SMILES | EC50 ([1]; LDH: Cytotoxicity assay: EC50) | LDH: Cytotoxicity assay: % Effect (HCT116 cells) | solubility kinetic [2] | logD [3] | other results
1 | CC(=O)N[C@@H](CCCNC(=N)N)C(=O)NCCC(=O)N[C@@H](CC(C)C)C(=O)N[C@H](C(=O)N[C@@H](Cc1ccccc1)C(=O)N[C@]1(C)CCCCCCC=CCCC[C@@](C)(C(=O)N[C@@H](CO)C(=O)N[C@@H](C)C(=O)N[C@@H](C)C(N)=O)NC(=O)[C@H](CC2CCC2)NC(=O)[C@H](CCC(N)=O)NC(=O)[C@H](C)NC(=O)[C@H](Cc2c[nH]c3ccccc23)NC(=O)[C@H](Cc2ccc(O)cc2)NC(=O)[C@H](CCC(=O)O)NC1=O)[C@@H](C)O [MP-000] | > 50 µM | 6.079% | 2 µM (≈ 3.94 µg/mL) | 2.66 | 
2 | CC(=O)N[C@@H](CCCNC(=N)N)C(=O)N[C@@H](CCCNC(=N)N)C(=O)NCCCCCC(=O)N[C@@H](CCCCN=[N+]=[N-])C(=O)N[C@@H](CC(C)C)C(=O)N[C@H](C(=O)N[C@@H](Cc1ccccc1)C(=O)N[C@]1(C)CCCCCCC=CCCC[C@@](C)(C(=O)N[C@@H](CO)C(=O)N[C@@H](C)C(=O)N[C@@H](C)C(N)=O)NC(=O)[C@H](CC2CCC2)NC(=O)[C@H](CCC(N)=O)NC(=O)[C@H](C)NC(=O)[C@H](Cc2c[nH]c3ccccc23)NC(=O)[C@H](Cc2ccc(O)cc2)NC(=O)[C@H](CCC(=O)O)NC1=O)[C@@H](C)O [MP-007] | > 50 µM | 23.39% | 37 µM (≈ 86 µg/mL) | 2.83 | 
3 | CC(C)C[C@@H]1NC(=O)[C@H](C)NC(=O)[C@H](Cc2c[nH]c3ccccc23)NC(=O)[C@H](Cc2ccc(O)cc2)NC(=O)[C@H](CCC(=O)O)NC(=O)[C@](C)(NC(=O)[C@H](Cc2ccccc2)NC(=O)[C@H](CO)NC(=O)[C@@H](NC(=O)CNC(=O)[C@H](CO)NC(=O)CNC(=O)[C@@H](N)CCCCN=[N+]=[N-])[C@@H](C)O)CCCCCCC=CCCC[C@@](C)(C(=O)N[C@@H](CCC(=O)O)C(N)=O)NC(=O)[C@H](CC(C)C)NC1=O [MP-011] | > 50 µM | 18.05% | 23 µM (≈ 43.8 µg/mL) | 2.05 | 
4 | CC(=O)N[C@@H](CCCCN=[N+]=[N-])C(=O)N[C@@H](CCCNC(=N)N)C(=O)N[C@@H](CCCNC(=N)N)C(=O)NCCCCCC(=O)N[C@H](C(=O)N[C@@H](CO)C(=O)N[C@@H](Cc1ccccc1)C(=O)N[C@]1(C)CCCCCCC=CCCC[C@@](C)(C(=O)N[C@@H](CCC(=O)O)C(=O)N[C@@H](CC(N)=O)C(=O)N[C@@H](Cc2ccccc2)C(N)=O)NC(=O)[C@H](CC(C)C)NC(=O)[C@H](CC(C)C)NC(=O)[C@H](C)NC(=O)[C@H](Cc2c[nH]c3ccccc23)NC(=O)[C@H](Cc2ccc(O)cc2)NC(=O)[C@H](CCC(=O)O)NC1=O)[C@@H](C)O [MP-083] (Ac-[Lys(N3)]RR[Ahx]TSF[R8]EYWALL[S5]ENF-NH2; staple 8-15) |  |  | 4 µM (≈ 9.73 µg/mL) | 2.54 | EC50 ([1]; LDH: Cytotoxicity assay EC50): > 50 µM; LDH: Cytotoxicity assay % Effect (HCT116 cells): 0.165%
5 | CC(=O)N[C@@H](CC(C)C)C(=O)N[C@H](C(=O)N[C@@H](Cc1ccccc1)C(=O)N[C@]1(C)CCCCCCC=CCCC[C@@](C)(C(=O)N[C@@H](CO)C(=O)N[C@@H](C)C(=O)N[C@@H](C)C(N)=O)NC(=O)[C@H](CC2CCC2)NC(=O)[C@H](CCC(N)=O)NC(=O)[C@H](C)NC(=O)[C@H](Cc2c[nH]c3cc(Cl)ccc23)NC(=O)[C@H](Cc2ccc(O)cc2)NC(=O)[C@H](CCC(=O)O)NC1=O)[C@@H](C)O [MP-192] | 19.9 µM |  |  |  | Solubility [2]: Poorly Behaved; Partition Coeff LogD [3]: Poorly Behaved
6 | CC(=O)N[C@@H](CCCCN=[N+]=[N-])C(=O)NCCC(=O)N[C@@H](CC(C)C)C(=O)N[C@H](C(=O)N[C@@H](Cc1ccccc1)C(=O)N[C@]1(C)CCCCCCC=CCCC[C@@](C)(C(=O)N[C@@H](CO)C(=O)N[C@@H](C)C(=O)N[C@@H](CCCNC(=N)N)C(N)=O)NC(=O)[C@H](CC2CCC2)NC(=O)[C@H](CCC(N)=O)NC(=O)[C@H](C)NC(=O)[C@H](Cc2c[nH]c3ccccc23)NC(=O)[C@H](Cc2ccc(O)cc2)NC(=O)[C@H](CCC(=O)O)NC1=O)[C@@H](C)O [MP-480] (Ac-[Lys(N3)][βAla]LTF[R8]EYWAQ[Cba][S5]SAR-NH2; staple 6-13) | > 50 µM |  |  |  | cell entry EC50 (in vitro; Nanoclick permeability assay EC50): 0.1 µM
7 | CC(=O)N[C@@H](CCCCN=[N+]=[N-])C(=O)NCCC(=O)N[C@@H](CC(C)C)C(=O)N[C@H](C(=O)N[C@@H](Cc1ccccc1)C(=O)N[C@]1(C)CCCCC#CC#CCCC[C@@](C)(C(=O)N[C@@H](C)C(=O)N[C@@H](C)C(=O)N[C@@H](C)C(=O)N[C@@H](C)C(=O)N[C@@H](C)C(=O)N[C@H](C)C(N)=O)NC(=O)[C@H](CC2CCC2)NC(=O)[C@H](CCC(N)=O)NC(=O)[C@H](C)NC(=O)[C@H](Cc2c[nH]c3ccccc23)NC(=O)[C@H](Cc2ccc(O)cc2)NC(=O)[C@H](CCC(=O)O)NC1=O)[C@@H](C)O [MP-616] |  |  |  | 2.67 | EC50 [1, 4]: > 50.7 µM; EC50 [1, 5]: > 50.7 µM; LDH: Cytotoxicity assay: % Effect (HCT116 cells; 0% FBS 4Hr): 12.87%; LDH: Cytotoxicity assay: % Effect (HCT116 cells; 10% FBS 16Hr): 8.138%
8 | CC(=O)N[C@@H](CCCCN=[N+]=[N-])C(=O)NCCC(=O)N[C@@H](CC(C)C)C(=O)N[C@H](C(=O)N[C@@H](Cc1ccccc1)C(=O)N[C@]1(C)CCCCCCC=CCCC[C@@](C)(C(=O)N[C@@H](C)C(=O)N[C@@H](C)C(=O)N[C@@H](C)C(=O)O)NC(=O)[C@H](CC2CCC2)NC(=O)[C@H](CCC(N)=O)NC(=O)[C@H](C)NC(=O)[C@H](Cc2c[nH]c3ccccc23)NC(=O)[C@H](Cc2ccc(O)cc2)NC(=O)[C@H](CCC(=O)O)NC1=O)[C@@H](C)O [MP-684] |  |  |  |  | EC50 [1, 4]: > 50.7 µM; EC50 [1, 5]: > 50.7 µM; cell entry EC50 (in vitro): 0.496 µM
9 | CC(=O)N[C@@H](CCCCN=[N+]=[N-])C(=O)NCCC(=O)N[C@@H](CC(C)C)C(=O)N[C@H](C(=O)N[C@@H](Cc1ccccc1)C(=O)N[C@]1(C)CCCCCCC=CCCC[C@@](C)(C(=O)N[C@@H](C)C(=O)N[C@@H](C)C(=O)N[C@@H](CCC(=O)O)C(=O)N[C@@H](C)C(=O)N[C@@H](C)C(=O)N[C@H](C)C(N)=O)NC(=O)[C@H](CC2CCC2)NC(=O)[C@H](CCC(N)=O)NC(=O)[C@H](C)NC(=O)[C@H](Cc2c[nH]c3ccccc23)NC(=O)[C@H](Cc2ccc(O)cc2)NC(=O)[C@H](CCC(=O)O)NC1=O)[C@@H](C)O [MP-833] (Ac-[Lys(N3)][βAla]LTF[R8]EYWAQ[Cba][S5]AAEAA[dA]-NH2; staple 6-13) |  |  | 154 µM (≈ 343 µg/mL) |  | EC50 ([1]; 0% FBS 4Hr, read-out: LDH: Cytotoxicity assay EC50): > 50.7 µM; EC50 ([1]; 10% FBS 16Hr, read-out: LDH: Cytotoxicity assay EC50): > 50.7 µM; LDH: Cytotoxicity assay % Effect (HCT116 cells; 0% FBS 4Hr): 3.813%; LDH: Cytotoxicity assay % Effect (HCT116 cells; 10% FBS 16Hr): 10.68%; cell entry EC50 (in vitro): 1.02 µM
10 | CC(=O)N[C@@H](CCCNC(=N)N)C(=O)NCCC(=O)N[C@@H](CCCCN=[N+]=[N-])C(=O)N[C@@H](CC(C)C)C(=O)N[C@H](C(=O)N[C@@H](Cc1ccccc1)C(=O)N[C@]1(C)CCCCCCC=CCCC[C@@](C)(C(=O)N[C@@H](CO)C(=O)N[C@@H](C)C(=O)N[C@@H](C)C(N)=O)NC(=O)[C@H](CC2CCC2)NC(=O)[C@H](CCC(N)=O)NC(=O)[C@H](C)NC(=O)[C@H](Cc2c[nH]c3ccccc23)NC(=O)[C@H](Cc2ccc(O)cc2)NC(=O)[C@H](CCC(=O)O)NC1=O)[C@@H](C)O [MP-4004] | > 50 µM | 7.573% |  |  | Solubility [2]: Poorly Behaved; Partition Coeff LogD [3]: Poorly Behaved
